# Laboratory results reported in patent US20200017496A1 (priority 2017, published 2020).
# Read-outs that look alike come from different tables or passages of the source.
# How the values were obtained:
# Test in all cases: MIC of compounds alone and combined with antibacterials, broth microdilution (CLSI)
# Format in all cases: cell-based
# [1] = tested on: Morganella morganii (MMO) isolates; settings: Morganella morganii, read-out: MIC
# How it was run: (§1)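 First, log-phase suspensions are brought to a final 5·10^5 CFU/mL in cation-adjusted Mueller-Hinton broth. Then plates with compound, antibacterial, or both incubate 16-20 h at 35° C under ambient air. Finally, visual inspection gives the lowest growth-preventing concentration for each agent.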
# [2] = tested on: Providencia rettgeri (PRE) isolates
# How it was run: as §1
# [3] = tested on: Providencia stuartii (PST) isolates; settings: for MIC: Providencia stuartii, read-out: MIC
# How it was run: as §1
# [4] = tested on: Serratia marcescens (SMA) isolates; settings: for MIC: Serratia marcescens, read-out: MIC
# How it was run: as §1
smiles,measurement,setting,value
"C=CC1=C(C(=O)O)N2C(=O)[C@@H](NC(=O)/C(=N\OCC(=O)O)c3csc(N)n3)[C@H]2SC1 [FIX, Cefixime]",MIC,"[1]; strain MMO UFR244 (DHA-1), CLA @ 4 μg/ml+ ATB",8 µg/mL
same,MIC,"[1]; strain MMO UFR245 (DHA-1), ATB alone",32 µg/mL
same,MIC,"[1]; strain MMO UFR245 (DHA-1), CLA @ 4 μg/ml+ ATB",64 µg/mL
same,MIC,"[1]; strain MMO UFR246 (DHA-1), ATB alone",32 µg/mL
same,MIC,"[1]; strain MMO UFR246 (DHA-1), CLA @ 4 μg/ml+ ATB",64 µg/mL
same,MIC,"[1]; strain MMO UFR247 (DHA-1), ATB alone",16 µg/mL
same,MIC,"[1]; strain MMO UFR247 (DHA-1), CLA @ 4 μg/ml+ ATB",32 µg/mL
same,MIC,"[2]; ATB combined with CLA @ 4 μg/ml, strain PRE UFR236 (TEM-1, OXA-48)",32 µg/mL
same,MIC ATB in combination,"[2]; PRE UFR99, AF1 @ 4 μg/mL",>128 µg/mL
same,MIC ATB in combination,"[2]; PRE UFR99, AF1 @ 8 μg/mL",>128 µg/mL
same,MIC,"[2]; Providencia rettgeri, strain PRE UFR99 (OXA-1, OXA-181), ATB alone",> 128 µg/mL
same,MIC,"[2]; Providencia rettgeri, strain PRE UFR99 (OXA-1, OXA-181), CLA @ 4 μg/ml+ ATB",> 128 µg/mL
same,MIC,"[2]; Providencia rettgeri, ATB alone, strain PRE UFR236 (TEM-1, OXA-48), read-out: MIC",32 µg/mL
same,MIC ATB in combination,"[2]; strain PRE UFR236, antibacterial combined with AF1 @ 4 μg/mL",1 µg/mL
same,MIC ATB in combination,"[2]; strain PRE UFR236, antibacterial combined with AF1 @ 8 μg/mL",0.5 µg/mL
same,MIC ATB in combination,"[3]; PST UFR94, AF1 @ 4 μg/mL",<=0.25 μg/mL
same,MIC ATB in combination,"[3]; PST UFR94, AF1 @ 8 μg/mL",<=0.25 μg/mL
same,MIC ATB in combination,"[3]; PST UFR95, AF1 @ 4 μg/mL",<=0.25 μg/mL
same,MIC ATB in combination,"[3]; PST UFR95, AF1 @ 8 μg/mL",<=0.25 μg/mL
same,MIC ATB in combination,"[3]; PST UFR235, AF1 @ 4 μg/mL",0.125 µg/mL
same,MIC ATB in combination,"[3]; PST UFR235, AF1 @ 8 μg/mL",0.063 µg/mL
same,MIC,"[3]; PST UFR235, alone",512 µg/mL
same,MIC,"[3]; strain PST UFR94 (CTX-M-14), ATB alone",0.5 µg/mL
same,MIC,"[3]; strain PST UFR94 (CTX-M-14), CLA @ 4 μg/ml+ ATB",2 µg/mL
same,MIC,"[3]; strain PST UFR95 (TEM-24), ATB alone",4 µg/mL
same,MIC,"[3]; strain PST UFR95 (TEM-24), CLA @ 4 μg/ml+ ATB",8 µg/mL
same,MIC,"[3]; strain PST UFR235 (VEB-1), ATB alone",512 µg/mL
same,MIC,"[3]; strain PST UFR235 (VEB-1), CLA @ 4 μg/ml+ ATB",8 µg/mL
same,MIC ATB in combination,"[4]; SMA UFR30, AF1 @ 4 μg/mL",<=0.25 μg/mL
same,MIC ATB in combination,"[4]; SMA UFR30, AF1 @ 8 μg/mL",<=0.25 μg/mL
same,MIC ATB in combination,"[4]; SMA UFR134, AF1 @ 4 μg/mL",1 µg/mL
same,MIC ATB in combination,"[4]; SMA UFR134, AF1 @ 8 μg/mL",1 µg/mL
same,MIC ATB in combination,"[4]; SMA UFR135, AF1 @ 4 μg/mL",2 µg/mL
same,MIC ATB in combination,"[4]; SMA UFR135, AF1 @ 8 μg/mL",2 µg/mL
same,MIC ATB in combination,"[4]; SMA UFR136, AF1 @ 4 μg/mL",4 µg/mL
same,MIC ATB in combination,"[4]; SMA UFR136, AF1 @ 8 μg/mL",2 µg/mL
same,MIC ATB in combination,"[4]; SMA UFR137, AF1 @ 4 μg/mL",<=0.25 μg/mL
same,MIC ATB in combination,"[4]; SMA UFR137, AF1 @ 8 μg/mL",<=0.25 μg/mL
same,MIC ATB in combination,"[4]; SMA UFR138, AF1 @ 4 μg/mL",<=0.25 μg/mL
same,MIC ATB in combination,"[4]; SMA UFR138, AF1 @ 8 μg/mL",<=0.25 μg/mL
same,MIC ATB in combination,"[4]; SMA UFR139, AF1 @ 4 μg/mL",0.5 µg/mL
same,MIC ATB in combination,"[4]; SMA UFR139, AF1 @ 8 μg/mL",<=0.25 μg/mL
same,MIC ATB in combination,"[4]; SMA UFR141, AF1 @ 4 μg/mL",0.5 µg/mL
same,MIC ATB in combination,"[4]; SMA UFR141, AF1 @ 8 μg/mL",0.5 µg/mL
same,MIC ATB in combination,"[4]; SMA UFR142, AF1 @ 4 μg/mL",2 µg/mL
same,MIC ATB in combination,"[4]; SMA UFR142, AF1 @ 8 μg/mL",1 µg/mL
same,MIC ATB in combination,"[4]; SMA UFR143, AF1 @ 4 μg/mL",0.25 µg/mL
same,MIC ATB in combination,"[4]; SMA UFR143, AF1 @ 8 μg/mL",0.25 µg/mL
same,MIC ATB in combination,"[4]; SMA UFR239, AF1 @ 4 μg/mL",0.5 µg/mL
same,MIC ATB in combination,"[4]; SMA UFR239, AF1 @ 8 μg/mL",0.5 µg/mL
same,MIC,"[4]; ATB alone, strain SMA UFR238 (OXA-48)",1 µg/mL
same,MIC,"[4]; ATB combined with CLA @ 4 μg/ml, strain SMA UFR238 (OXA-48)",2 µg/mL
same,MIC,"[4]; SMA UFR143, alone",512 µg/mL
same,MIC,"[4]; strain SMA UFR30 (OXA-405), ATB alone",1 µg/mL
same,MIC,"[4]; strain SMA UFR30 (OXA-405), CLA @ 4 μg/ml+ ATB",1 µg/mL
same,MIC,"[4]; strain SMA UFR134 (TEM-1, BES-1), ATB alone",> 128 µg/mL
same,MIC,"[4]; strain SMA UFR134 (TEM-1, BES-1), CLA @ 4 μg/ml+ ATB",32 µg/mL
same,MIC,"[4]; strain SMA UFR135 (TEM-1, KPC-2), ATB alone",64 µg/mL
same,MIC,"[4]; strain SMA UFR135 (TEM-1, KPC-2), CLA @ 4 μg/ml+ ATB",32 µg/mL
same,MIC,"[4]; strain SMA UFR136 (TEM-1, SHV-12, KPC-2), ATB alone",> 128 µg/mL
same,MIC,"[4]; strain SMA UFR136 (TEM-1, SHV-12, KPC-2), CLA @ 4 μg/ml+ ATB",> 128 µg/mL
same,MIC,"[4]; strain SMA UFR137 (SME-1), ATB alone",0.5 µg/mL
same,MIC,"[4]; strain SMA UFR137 (SME-1), CLA @ 4 μg/ml+ ATB",1 µg/mL
same,MIC,"[4]; strain SMA UFR138 (SME-1), ATB alone",0.5 µg/mL
same,MIC,"[4]; strain SMA UFR138 (SME-1), CLA @ 4 μg/ml+ ATB",0.5 µg/mL
same,MIC,"[4]; strain SMA UFR139 (SME-2), ATB alone",1 µg/mL
same,MIC,"[4]; strain SMA UFR139 (SME-2), CLA @ 4 μg/ml+ ATB",2 µg/mL
same,MIC,"[4]; strain SMA UFR141 (OXA-48), ATB alone",2 µg/mL
same,MIC,"[4]; strain SMA UFR141 (OXA-48), CLA @ 4 μg/ml+ ATB",0.5 µg/mL
same,MIC,"[4]; strain SMA UFR142 (OXA-48), ATB alone",2 µg/mL
same,MIC,"[4]; strain SMA UFR142 (OXA-48), CLA @ 4 μg/ml+ ATB",2 µg/mL
same,MIC,"[4]; strain SMA UFR143 (CTX-M-15, OXA-1, OXA-48), ATB alone",512 µg/mL
same,MIC,"[4]; strain SMA UFR143 (CTX-M-15, OXA-1, OXA-48), CLA @ 4 μg/ml+ ATB",64 µg/mL
same,MIC,"[4]; strain SMA UFR239 (ESAC), ATB alone",2 µg/mL
same,MIC,"[4]; strain SMA UFR239 (ESAC), CLA @ 4 μg/ml+ ATB",2 µg/mL
same,MIC ATB in combination,"[4]; strain SMA UFR238, antibacterial combined with AF1 @ 4 μg/mL",1 µg/mL
same,MIC ATB in combination,"[4]; strain SMA UFR238, antibacterial combined with AF1 @ 8 μg/mL",0.5 µg/mL
